pIC50: −log10 of the molar value.
Target: Nav 1.7 (Homo sapiens (Human), UniProt Q15858)
Test: Nav 1.7 in vitro PX assay, PatchXpress whole cell voltage clamp
Assay type: cell-based
Conditions: HEK293; values marked *; 4.9 μM; HEK 293 cells stably transfected with human Nav1.7; read-out: Nav 1.7 PX percent inhibition at 4.9 μM
Procedure: Nav 1.7 In Vitro PX Assay
HEK 293 cells stably transfected with human Nav1.7 were recorded in whole cell voltage clamp mode with the PatchXpress automated electrophysiology system (Molecular Devices, LLC, Sunnyvale, Calif.). Compound effects were measured on a partially inactivated state of the sodium channel. Cells were clamped to a holding potential yielding 20 to 50% inactivation. To elicit sodium current, channels were activated by pulsing to −10 mV for 20 msec. This voltage protocol was repeated at a rate of 0.1 Hz throughout the experiment. A single concentration of test compound was applied to cells for a duration of 3 minutes. Peak sodium current was measured at the end of the compound addition period to determine percent inhibition. Three to five cells were tested per concentration, and IC50 curves were fitted to percent inhibition as a function of concentration.

Sequence of Nav 1.7 (Q15858 whole entry): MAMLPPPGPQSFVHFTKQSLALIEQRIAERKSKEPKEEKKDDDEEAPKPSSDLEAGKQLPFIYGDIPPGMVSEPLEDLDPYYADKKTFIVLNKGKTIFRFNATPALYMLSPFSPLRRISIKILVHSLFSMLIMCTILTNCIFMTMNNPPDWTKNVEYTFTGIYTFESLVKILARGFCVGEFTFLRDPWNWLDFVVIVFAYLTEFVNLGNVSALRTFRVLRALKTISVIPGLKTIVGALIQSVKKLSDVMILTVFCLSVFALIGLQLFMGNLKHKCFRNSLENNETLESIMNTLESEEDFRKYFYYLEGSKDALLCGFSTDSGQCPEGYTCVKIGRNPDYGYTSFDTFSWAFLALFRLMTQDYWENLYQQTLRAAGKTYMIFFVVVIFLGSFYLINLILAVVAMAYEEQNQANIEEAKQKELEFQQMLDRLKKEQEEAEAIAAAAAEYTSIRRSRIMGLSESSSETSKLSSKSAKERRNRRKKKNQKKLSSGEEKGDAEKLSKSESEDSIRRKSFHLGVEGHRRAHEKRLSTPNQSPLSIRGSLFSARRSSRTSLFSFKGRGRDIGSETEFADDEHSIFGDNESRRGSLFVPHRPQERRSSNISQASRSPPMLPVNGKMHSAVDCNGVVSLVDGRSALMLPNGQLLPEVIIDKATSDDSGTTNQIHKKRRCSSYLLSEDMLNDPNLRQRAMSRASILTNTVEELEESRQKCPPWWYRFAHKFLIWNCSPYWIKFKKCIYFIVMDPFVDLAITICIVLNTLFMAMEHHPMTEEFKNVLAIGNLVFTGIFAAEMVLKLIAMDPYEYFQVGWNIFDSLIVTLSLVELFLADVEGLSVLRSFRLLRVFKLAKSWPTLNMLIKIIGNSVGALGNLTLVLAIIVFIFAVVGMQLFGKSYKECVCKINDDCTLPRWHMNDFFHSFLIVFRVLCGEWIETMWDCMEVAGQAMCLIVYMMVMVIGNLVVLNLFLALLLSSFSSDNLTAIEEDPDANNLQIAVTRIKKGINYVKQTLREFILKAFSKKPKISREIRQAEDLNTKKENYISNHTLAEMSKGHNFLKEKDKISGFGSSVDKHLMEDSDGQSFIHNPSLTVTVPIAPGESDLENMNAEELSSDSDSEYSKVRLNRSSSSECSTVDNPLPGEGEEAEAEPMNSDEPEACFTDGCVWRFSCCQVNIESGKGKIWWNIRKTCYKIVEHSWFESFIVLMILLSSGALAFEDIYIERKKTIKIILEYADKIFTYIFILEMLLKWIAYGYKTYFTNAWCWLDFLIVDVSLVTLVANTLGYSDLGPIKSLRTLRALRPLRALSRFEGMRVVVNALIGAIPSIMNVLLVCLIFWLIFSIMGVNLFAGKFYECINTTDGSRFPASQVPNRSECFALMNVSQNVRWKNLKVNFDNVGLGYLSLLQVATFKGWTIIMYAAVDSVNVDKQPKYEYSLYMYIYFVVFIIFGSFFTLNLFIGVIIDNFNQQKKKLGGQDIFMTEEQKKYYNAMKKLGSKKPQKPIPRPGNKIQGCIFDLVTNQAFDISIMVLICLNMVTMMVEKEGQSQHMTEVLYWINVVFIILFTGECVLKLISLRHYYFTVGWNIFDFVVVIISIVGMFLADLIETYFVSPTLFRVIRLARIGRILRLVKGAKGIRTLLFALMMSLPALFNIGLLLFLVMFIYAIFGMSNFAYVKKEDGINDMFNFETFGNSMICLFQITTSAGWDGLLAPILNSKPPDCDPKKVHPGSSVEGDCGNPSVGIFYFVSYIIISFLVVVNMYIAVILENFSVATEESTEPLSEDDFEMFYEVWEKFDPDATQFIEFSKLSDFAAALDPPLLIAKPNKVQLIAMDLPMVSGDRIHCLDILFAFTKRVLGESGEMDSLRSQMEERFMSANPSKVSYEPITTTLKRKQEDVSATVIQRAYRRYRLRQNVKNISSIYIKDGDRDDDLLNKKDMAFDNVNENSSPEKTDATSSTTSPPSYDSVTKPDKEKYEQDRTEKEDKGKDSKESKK

Row | SMILES | inhibition at 4.9 µM [%]
1 | CC(C)(O)COc1ccccc1N1CCOc2cc(S(=O)(=O)Nc3nccs3)ccc21 [Example 253, 4-(2-(2-hydroxy-2-methylpropoxy)phenyl)-N-(thiazol-2-yl)-3,4-dihydro-2H-benzo[b][1,4]oxazine-7-sulfonamide] | 27

Same assay, conditions: HEK 293 cells stably transfected with human Nav1.7; partially inactivated state (20 to 50% inactivation)

Row | SMILES | pIC50
2 | O=C1COc2cc(S(=O)(=O)Nc3nccs3)ccc2N1c1ccc(C(F)(F)F)cc1CO [Example 262, 4-(2-(hydroxymethyl)-4-(trifluoromethyl)phenyl)-3-oxo-N-(thiazol-2-yl)-3,4-dihydro-2H-benzo[b][1,4]oxazine-7-sulfonamide] | 5.47
3 | COc1cc(C(F)(F)F)ccc1N1C(=O)[C@@H](C)Oc2cc(S(=O)(=O)Nc3nccs3)ccc21 [Example 265, (R)-4-(2-Methoxy-4-(Trifluoromethyl)Phenyl)-2-Methyl-3-Oxo-N-(Thiazol-2-Yl)-3,4-Dihydro-2H-Benzo[B][1,4]Oxazine-7-Sulfonamide] | 6.14
4 | Cc1cc(C(F)(F)F)ccc1N1C(=O)COc2cc(S(=O)(=O)Nc3nccs3)ccc21 [Example 247, 4-(2-Methyl-4-(Trifluoromethyl)Phenyl)-3-Oxo-N-(Thiazol-2-Yl)-3,4-Dihydro-2H-Benzo[B][1,4]Oxazine-7-Sulfonamide] | 6.39
5 | COc1cc(C#N)ccc1N1C(=O)COc2cc(S(=O)(=O)Nc3nccs3)ccc21 [Example 232, 4-(4-Cyano-2-Methoxyphenyl)-3-Oxo-N-(Thiazol-2-Yl)-3,4-Dihydro-2H-Benzo[B][1,4]Oxazine-7-Sulfonamide] | 5.70
6 | O=C1COc2cc(S(=O)(=O)Nc3nccs3)ccc2N1c1ccc(C(F)(F)F)cc1F [Example 240, 4-(2-Fluoro-4-(Trifluoromethyl)Phenyl)-3-Oxo-N-(Thiazol-2-Yl)-3,4-Dihydro-2H-Benzo[B][1,4]Oxazine-7-Sulfonamide] | 4.92
7 | CC(C)(C#N)Oc1ccccc1N1CCOc2cc(S(=O)(=O)Nc3nccs3)ccc21 [Example 261, 4-(2-((2-cyanopropan-2-yl)oxy)phenyl)-N-(thiazol-2-yl)-3,4-dihydro-2H-benzo[b][1,4]oxazine-7-sulfonamide] | 5.44
8 | COc1cc(C(F)(F)F)ccc1N1C(=O)C(C)Oc2cc(S(=O)(=O)Nc3nccs3)ccc21 (racemic) [Example 263, (+/−)-4-(2-methoxy-4-(trifluoromethyl)phenyl)-2-methyl-3-oxo-N-(thiazol-2-yl)-3,4-dihydro-2H-benzo[b][1,4]oxazine-7-sulfonamide] | 6.34
9 | O=C1COc2cc(S(=O)(=O)Nc3nccs3)ccc2N1c1ccc(C(F)(F)F)cc1Cl [Example 241, 4-(2-Chloro-4-(Trifluoromethyl)Phenyl)-3-Oxo-N-(Thiazol-2-Yl)-3,4-Dihydro-2H-Benzo[B][1,4]Oxazine-7-Sulfonamide] | 6.32
10 | NC(=O)c1ccccc1N1CCOc2cc(S(=O)(=O)Nc3nccs3)ccc21 [Example 244, 2-(7-(N-(Thiazol-2-Yl)Sulfamoyl)-2H-Benzo[B][1,4]Oxazin-4(3H)-Yl)Benzamide] | 5.30
11 | COc1ccc(C(F)(F)F)cc1N1C(=O)COc2cc(S(=O)(=O)Nc3nccs3)ccc21 [Example 236, 4-(2-Methoxy-5-(Trifluoromethyl)Phenyl)-3-Oxo-N-(Thiazol-2-Yl)-3,4-Dihydro-2H-Benzo[B][1,4]Oxazine-7-Sulfonamide] | 6.29
12 | CS(=O)(=O)c1ccccc1N1CCOc2cc(S(=O)(=O)Nc3nccs3)ccc21 [Example 230, 4-(2-(Methylsulfonyl)Phenyl)-N-(Thiazol-2-Yl)-3,4-Dihydro-2H-Benzo[B][1,4]Oxazine-7-Sulfonamide] | 4.47
13 | N#Cc1cc(C(F)(F)F)ccc1N1C(=O)COc2cc(S(=O)(=O)Nc3nccs3)ccc21 [Example 234, 4-(2-Cyano-4-(Trifluoromethyl)Phenyl)-3-Oxo-N-(Thiazol-2-Yl)-3,4-Dihydro-2H-Benzo[B][1,4]Oxazine-7-Sulfonamide] | 5.84
14 | O=S(=O)(Nc1nccs1)c1ccc2c(c1)OCCN2c1ccccc1-c1ccc(O)nc1 [Example 255, 4-(2-(6-hydroxypyridin-3-yl)phenyl)-N-(thiazol-2-yl)-3,4-dihydro-2H-benzo[b][1,4]oxazine-7-sulfonamide 2,2,2-trifluoroacetate] | 6.01
15 | N#CCOc1ccccc1N1CCOc2cc(S(=O)(=O)Nc3nccs3)ccc21 [Example 257, 4-(2-(cyanomethoxy)phenyl)-N-(thiazol-2-yl)-3,4-dihydro-2H-benzo[b][1,4]oxazine-7-sulfonamide] | 6.39
16 | N#Cc1cc(Cl)ccc1N1CCOc2cc(S(=O)(=O)Nc3ccncn3)ccc21 [Example 243, 4-(4-Chloro-2-Cyanophenyl)-N-(Pyrimidin-4-Yl)-3,4-Dihydro-2H-Benzo[B][1,4]Oxazine-7-Sulfonamide] | 5.73
17 | COc1cc(F)ccc1N1C(=O)COc2cc(S(=O)(=O)Nc3nccs3)ccc21 [Example 245, 4-(4-Fluoro-2-Methoxyphenyl)-3-Oxo-N-(Thiazol-2-Yl)-3,4-Dihydro-2H-Benzo[B][1,4]Oxazine-7-Sulfonamide] | 6.21

Row | SMILES | pIC50
18 | COc1cc(C(F)(F)F)ccc1N1C(=O)C(C)(C)Oc2cc(S(=O)(=O)Nc3nccs3)ccc21 [Example 266, 4-(2-Methoxy-4-(Trifluoromethyl)Phenyl)-2,2-Dimethyl-3-Oxo-N-(Thiazol-2-Yl)-3,4-Dihydro-2H-Benzo[B][1,4]Oxazine-7-Sulfonamide] | 5.25
19 | COc1cc(Cl)ccc1N1C(=O)COc2cc(S(=O)(=O)Nc3nccs3)ccc21 [Example 233, 4-(4-Chloro-2-Methoxyphenyl)-3-Oxo-N-(Thiazol-2-Yl)-3,4-Dihydro-2H-Benzo[B][1,4]Oxazine-7-Sulfonamide] | 6.49
20 | CC(C)(O)c1ccccc1N1CCOc2cc(S(=O)(=O)Nc3nccs3)ccc21 [Example 258, 4-(2-(2-hydroxypropan-2-yl)phenyl)-N-(thiazol-2-yl)-3,4-dihydro-2H-benzo[b][1,4]oxazine-7-sulfonamide] | 5.88
21 | COc1cc(C(F)(F)F)ccc1N1C(=O)[C@H](C)Oc2cc(S(=O)(=O)Nc3nccs3)ccc21 [Example 264, (S)-4-(2-methoxy-4-(trifluoromethyl)phenyl)-2-methyl-3-oxo-N-(thiazol-2-yl)-3,4-dihydro-2H-benzo[b][1,4]oxazine-7-sulfonamide] | 6.22
22 | COc1cc(C(F)(F)F)ccc1N1C(=O)COc2cc(S(=O)(=O)Nc3ncns3)ccc21 [Example 248, 4-(2-Methoxy-4-(Trifluoromethyl)Phenyl)-3-Oxo-N-(1,2,4-Thiadiazol-5-Yl)-3,4-Dihydro-2H-Benzo[B][1,4]Oxazine-7-Sulfonamide] | 6.76
23 | O=C1COc2cc(S(=O)(=O)Nc3nccs3)ccc2N1c1ccc(C(F)(F)F)cc1Br [Example 239, 4-(2-Bromo-4-(Trifluoromethyl)Phenyl)-3-Oxo-N-(Thiazol-2-Yl)-3,4-Dihydro-2H-Benzo[B][1,4]Oxazine-7-Sulfonamide] | 6.46
24 | O=S(=O)(Nc1nccs1)c1ccc2c(c1)OCCN2c1ccccc1C(O)CO (stereo not drawn) [Example 252, 4-(2-(1,2-dihydroxyethyl)phenyl)-N-(thiazol-2-yl)-3,4-dihydro-2H-benzo[b][1,4]oxazine-7-sulfonamide] | 5.44
25 | COc1ccc(F)cc1N1C(=O)COc2cc(S(=O)(=O)Nc3nccs3)ccc21 [Example 246, 4-(5-Fluoro-2-Methoxyphenyl)-3-Oxo-N-(Thiazol-2-Yl)-3,4-Dihydro-2H-Benzo[B][1,4]Oxazine-7-Sulfonamide] | 6.27
26 | C=C(C)c1ccccc1N1CCOc2cc(S(=O)(=O)Nc3nccs3)ccc21 [Example 254, 4-(2-(prop-1-en-2-yl)phenyl)-N-(thiazol-2-yl)-3,4-dihydro-2H-benzo[b][1,4]oxazine-7-sulfonamide] | 5.62
27 | CCc1ccccc1N1CCOc2cc(S(=O)(=O)Nc3nccs3)ccc21 [Example 259, 4-(2-ethylphenyl)-N-(thiazol-2-yl)-3,4-dihydro-2H-benzo[b][1,4]oxazine-7-sulfonamide] | 5.80
28 | COc1ccccc1N1CCOc2cc(S(=O)(=O)Nc3ncns3)ccc21 [Example 238, 4-(2-Methoxyphenyl)-N-(1,2,4-Thiadiazol-5-Yl)-3,4-Dihydro-2H-Benzo[B][1,4]Oxazine-7-Sulfonamide] | 6.87
29 | COc1ccccc1N1C(=O)COc2cc(S(=O)(=O)Nc3nccs3)ccc21 [Example 235, 4-(2-Methoxyphenyl)-3-Oxo-N-(Thiazol-2-Yl)-3,4-Dihydro-2H-Benzo[B][1,4]Oxazine-7-Sulfonamide] | 6.05
30 | COCCOc1ccccc1N1CCOc2cc(S(=O)(=O)Nc3nccs3)ccc21 [Example 229, 4-(2-(2-Methoxyethoxy)Phenyl)-N-(Thiazol-2-Yl)-3,4-Dihydro-2H-Benzo[B][1,4]Oxazine-7-Sulfonamide] | 5.50
31 | CC(O)c1ccccc1N1C(=O)COc2cc(S(=O)(=O)Nc3nccs3)ccc21 (stereo not drawn) [Example 242, 4-(2-(1-Hydroxyethyl)Phenyl)-3-Oxo-N-(Thiazol-2-Yl)-3,4-Dihydro-2H-Benzo[B][1,4]Oxazine-7-Sulfonamide] | 5.24
32 | COc1ccc(C#N)cc1N1CCOc2cc(S(=O)(=O)Nc3nccs3)ccc21 [Example 225, 4-(5-Cyano-2-Methoxyphenyl)-N-(Thiazol-2-Yl)-3,4-Dihydro-2H-Benzo[B][1,4]Oxazine-7-Sulfonamide] | 6.52
33 | O=S(=O)(Nc1nccs1)c1ccc2c(c1)OCCN2c1ccccc1-c1cncnc1 [Example 231, 4-(2-(Pyrimidin-5-Yl)Phenyl)-N-(Thiazol-2-Yl)-3,4-Dihydro-2H-Benzo[B][1,4]Oxazine-7-Sulfonamide] | 4.70

— patent US9346798B2, “Dihydrobenzoxazine and tetrahydroquinoxaline sodium channel inhibitors” (AMGEN INC., priority 2012, dated 2016)
